Experimental data from article PMC7316778 (Nature Communications, 2020).

What was measured:
Set-up in all cases: human FES cDNA encoding residues 448–822 or human FER cDNA encoding residues 448–820 was amplified by PCR; made in house; host or cells: E. coli BL21(DE3), co-expressing YopH phosphatase
FES^S700C [1] = target: T1, FES^S700C (Homo sapiens, UniProt P07332, S700C); experiment: PamChip microarray peptide phosphorylation; assay type: biochemical; conditions: for Mean signal, time course: Figure 7f, S700C + WEL028, n 3
T1 sequence (P07332 448-822 S700C): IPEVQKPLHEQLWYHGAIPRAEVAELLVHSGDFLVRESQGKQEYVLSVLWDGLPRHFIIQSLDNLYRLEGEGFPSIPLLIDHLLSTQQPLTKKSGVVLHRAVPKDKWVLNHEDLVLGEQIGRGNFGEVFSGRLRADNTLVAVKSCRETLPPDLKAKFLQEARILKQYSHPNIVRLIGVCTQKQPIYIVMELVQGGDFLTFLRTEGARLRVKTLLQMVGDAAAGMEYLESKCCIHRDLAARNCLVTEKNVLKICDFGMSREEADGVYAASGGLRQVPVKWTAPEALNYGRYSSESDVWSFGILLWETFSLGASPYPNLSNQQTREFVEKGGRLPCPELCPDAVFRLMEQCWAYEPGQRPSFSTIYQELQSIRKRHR

FES^S700C [2] = target: T1, FES^S700C; experiment: In vitro TR-FRET kinase assay; assay type: biochemical; conditions: TR-FRET assay, 5 µM ATP; n = 3; read-out: pIC50 FES^S700C (converted)
FES^S700C [3] = target: T1, FES^S700C; experiment: MS identification of covalent inhibitor-peptide adduct; conditions: 1 μM, 30 min, rt
Experimental: Purified FES^S700C (1.2 μg in 38 μL) was treated with WEL028 (2 μL of 20× concentrated stock in DMSO, 1 μM final concentration) or vehicle (as negative control) for 30 min at rt. […] Gel was stained using Coomassie Brilliant Blue R-250, bands were cut out of gel into small blocks and then destained in 500 μL of 50% MeOH in 100 mM NH4HCO3 pH 8.0 for 10 min at rt. Acetonitrile (500 μL) was added for gel blocks dehydration, after which gel blocks were digested with sequencing-grade trypsin (Promega) in 250 μL trypsin buffer (100 mM Tris pH 7.5, 100 mM NaCl, 1 mM CaCl2, 10% acetonitrile) overnight at 37 °C with vigorous shaking. […] Samples were subsequently desalted using StageTips with C18 material. […]
Tryptic peptides were analyzed on a Surveyor nano-LC system (Thermo) hyphenated to a LTQ-Orbitrap mass spectrometer (Thermo) (n = 1)[69]. […] Samples of 10 µl were separated via a trap-elute setup at 250 nL/min flow and analyzed by data-dependent acquisition of one full scan/ top 3 method. For shotgun proteomics, fragmented precursor ions measured twice within 10 s were dynamically excluded for 60 s and ions with z < 2 or unassigned charges were not analyzed. Peptide ID was determined with the Mascot search engine. […]

In the case of `C#CCOc1ccc(Nc2ncc(Cl)c(Nc3ccccc3NC(=O)C=C)n2)c(OC)c1` [Compound 6], the “Mean signal, time course” value (FES^S700C [1]; time 0 min) is reported as -48.0, the “Mean signal, time course” value (FES^S700C [1]; time 5 min) is reported as -46.0 and the “Mean signal, time course” value (FES^S700C [1]; time 10 min) is reported as -41.0. The “Mean signal, time course” value (FES^S700C [1]; time 15 min) was -40.0, the “Mean signal, time course” value (FES^S700C [1]; time 20 min) was -38.0 and the “Mean signal, time course” value (FES^S700C [1]; time 25 min) was -35.0. The “Mean signal, time course” value (FES^S700C [1]; time 30 min) was -33.0, the “Mean signal, time course” value (FES^S700C [1]; time 35 min) was -32.0 and the “Mean signal, time course” value (FES^S700C [1]; time 40 min) was -32.0. For the same compound, the “Mean signal, time course” value (FES^S700C [1]; time 45 min) was -30.0, the “Mean signal, time course” value (FES^S700C [1]; time 50 min) was -26.0 and the “Mean signal, time course” value (FES^S700C [1]; time 55 min) was -29.0. For the same compound, the “Mean signal, time course” value (FES^S700C [1]; time 60 min) was -29.0, the ZAP70 peptide phosphorylation (FES^S700C [1]; WEL028 100 nM) was “abolished peptide phosphorylation” and the IC50 (FES^S700C [2]) was 3.98 nM. For the same compound, the “Covalent adduct by LC-MS/MS” value (FES^S700C [3]) was “covalent addition of WEL028 to Cys700”.
